What all share (format): cell-based
Holding throughout (settings): Hepatocyte

Experiment [1] concerns the target T1, Sodium/nucleoside cotransporter 2 (Rattus norvegicus) (UniProt Q62773).
T1 sequence (whole entry): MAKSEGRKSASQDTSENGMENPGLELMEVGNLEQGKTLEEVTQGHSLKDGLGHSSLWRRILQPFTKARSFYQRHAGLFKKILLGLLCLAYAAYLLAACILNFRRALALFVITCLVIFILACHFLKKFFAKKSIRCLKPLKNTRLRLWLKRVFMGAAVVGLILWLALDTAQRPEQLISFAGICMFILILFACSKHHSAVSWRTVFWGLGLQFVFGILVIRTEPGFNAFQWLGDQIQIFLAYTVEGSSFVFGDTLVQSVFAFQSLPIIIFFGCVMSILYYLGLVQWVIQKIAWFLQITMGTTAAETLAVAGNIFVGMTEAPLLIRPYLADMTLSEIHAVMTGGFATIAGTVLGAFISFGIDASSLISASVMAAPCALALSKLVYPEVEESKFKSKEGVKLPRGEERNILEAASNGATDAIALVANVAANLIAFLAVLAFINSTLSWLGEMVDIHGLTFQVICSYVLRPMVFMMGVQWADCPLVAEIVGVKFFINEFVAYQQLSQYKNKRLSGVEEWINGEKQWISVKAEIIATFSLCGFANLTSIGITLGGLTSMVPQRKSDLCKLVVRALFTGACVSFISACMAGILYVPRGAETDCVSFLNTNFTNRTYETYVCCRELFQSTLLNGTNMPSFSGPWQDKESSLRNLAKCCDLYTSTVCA
Description: Transport through CNT2 in rat hepatocytes by oil filtration assay.

Experiment [2] addresses T2, Sodium/nucleoside cotransporter 2 (Mus musculus) (UniProt O88627).
T2 sequence (whole entry): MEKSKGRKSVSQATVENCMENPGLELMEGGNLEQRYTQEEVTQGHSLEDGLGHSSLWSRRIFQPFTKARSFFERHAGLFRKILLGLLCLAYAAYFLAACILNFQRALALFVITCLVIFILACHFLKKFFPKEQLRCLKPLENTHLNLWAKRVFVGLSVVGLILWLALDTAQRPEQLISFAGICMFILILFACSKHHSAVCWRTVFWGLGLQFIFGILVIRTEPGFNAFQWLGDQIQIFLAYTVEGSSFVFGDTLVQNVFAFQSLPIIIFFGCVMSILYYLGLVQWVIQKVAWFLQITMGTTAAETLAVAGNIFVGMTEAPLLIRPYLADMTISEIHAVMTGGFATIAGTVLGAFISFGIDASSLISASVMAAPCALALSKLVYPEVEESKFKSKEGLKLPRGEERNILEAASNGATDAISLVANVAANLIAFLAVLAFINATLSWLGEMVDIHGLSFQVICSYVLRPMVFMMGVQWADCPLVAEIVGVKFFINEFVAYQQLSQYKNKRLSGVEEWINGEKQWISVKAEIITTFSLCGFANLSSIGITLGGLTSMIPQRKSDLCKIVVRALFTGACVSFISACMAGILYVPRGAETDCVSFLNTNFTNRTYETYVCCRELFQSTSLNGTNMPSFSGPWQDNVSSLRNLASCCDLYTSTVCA
Nature of the experiment: Transport through CNT2 in mouse hepatocytes by oil filtration assay pre-incubated with 20 ng/mL rotenone for 15 mins and 2 mM 2-deoxyglucose for 10 mins at 37 degC in presence of sodium ions in Kreb-henseleit buffer containing 100 nM NBMPR.

In experiment [3] the target is T1, Sodium/nucleoside cotransporter 2 (Rattus norvegicus). Description: Transport through CNT2 in rat hepatocytes by oil filtration assay pre-incubated with 20 ng/mL rotenone for 15 mins and 2 mM 2-deoxyglucose for 10 mins at 37 degC in presence of sodium ions in Kreb-henseleit buffer containing 100 nM NBMPR.
The target of experiment [4] is T2, Sodium/nucleoside cotransporter 2 (Mus musculus). Nature of the experiment: Transport through CNT2 in mouse hepatocytes by oil filtration assay pre-incubated with 20 ng/mL rotenone for 15 mins and 2 mM 2-deoxyglucose for 10 mins at 37 degC in Kreb-henseleit buffer.
Experiment [5] addresses T1, Sodium/nucleoside cotransporter 2 (Rattus norvegicus). Nature of the experiment: Transport through CNT2 in rat hepatocytes by oil filtration assay pre-incubated with 20 ng/mL rotenone for 15 mins and 2 mM 2-deoxyglucose for 10 mins at 37 degC in Kreb-henseleit buffer.

Activity calls are given as the source filed them. The rule behind the calls is not given here.

These results are taken from ChEMBL document CHEMBL1275601, “Striking species difference in the contribution of concentrative nucleoside transporter 2 to nucleoside uptake between mouse and rat hepatocytes” (Antimicrob Agents Chemother, 2010).

Consider `Nc1ncnc2c1ncn2[C@@H]1O[C@H](CO)[C@@H](O)[C@H]1O`, for which, in experiment [1], the outcome was inactive.

In the case of `NC(=O)c1ncn([C@@H]2O[C@H](CO)[C@@H](O)[C@H]2O)n1`, the result in experiment [1], in experiment [2], in experiment [3], in experiment [4] and in experiment [5] was Active.
